From patent publication EP0807629B1, “Sulfonamido substituted chromane derivatives, method for their preparation, their use as medicaments or diagnostic agents aswell as medicaments containing them” (Aventis Pharma Deutschland GmbH, priority 1996, dated 1997)
Read-outs that look alike come from different tables or passages of the source.

Test system: gastrischen Drüsenschläuche
Assay: 14C-aminopyrine accumulation in isolated gastric glands (inhibition of gastric acid secretion)
Format: cell-based, Kaninchen
Details: read-out: IC50 Inhibition der stimulierten AP-Akkumulation
Source text: Methode: Die Hochdruckperfusion des […] wurde nach der Beschreibung von Berglindh und Obrink (1) und unter Anwendung einiger Modifikationen, wie sie an anderer Stelle berichtet werden (2), ausgeführt. Kaninchen (männlich und weiblich, 2 - 3 kg) wurden schmerzfrei unter Narkose durch zervikale Dislokation getötet und der Magen wie in der Literatur berichtet perfundiert (1). Die Mukosa des Magenfundus wurde mit einem Schaber entfernt und mittels einer Schere zerkleinert. Die so erhaltenen Mukosafragmente wurden mit_1 mg/ml Kollagenase in einem Medium bestehend aus 100 mM NaCl, 5 mM KCI, 0,5 mM NaH2PO4, 1 mM Na2HPO4, 1 mM CaCl2, 1,5 mM MgCl2, 20 mM NaHCO3, 20 mM HEPES, 2mg/ml Glukose und 1 mg/ml Kaninchenalbumin für 30 - 45 min bei 37°C behandelt, wobei der pH des Gemisches mit Tris-Puffer auf 7,4 eingestellt war. Die Drüsenschläuche (gastric glands) wurden durch ein Nylonnetz zur Entfernung grober Fragmente filtriert und 3 mal mit Inkubationsmedium gespült. Anschließend wurden die Drüsenschläuche im Medium in einer Konzentration von 2 - 4 mg Trockengewicht/ml suspendiert.
Als Maß für die Fähigkeit der gastrischen Drüsenschläuche zur Säurebildung wurde die Akkumulation von ^14C-Aminopyrin (^14C-AP) bestimmt (3). Hierzu wurden Proben von 1 ml Drüsenschlauchsuspension mit ^14C-AP (1 µM, 200 000 cpm) und der zu testenden Verbindung inkubiert und für 20 - 30 min bei 37°C in einem schüttelnden Wasserbad behandelt. Anschließend wurden Histamin (100 µM), dbcAMP (0.3 oder 1 mM) oder Carbachol (100 µM) zugegeben, gefolgt von einer zweiten Inkubationsdauer von 30 - 45 min.. Die Inkubation wurde anschließend beendet durch Zentrifugiren der Proben für eine halbe Minute. Die überstehende Flüssigkeit wurde entfernt und die erhaltenen pellets in 1 ml NaOH gelöst. Proben der Pellets und des Flüssigkeitsüberstands wurden im Szintillationszähler gemessen. Das AP-Verhältnis der intraglandulären und extraglandulären Radioaktivität wurde nach Sack und Spenney (4) berechnet. Alle Bestimmungen wurden dreifach durchgeführt.

- IC50 (after Carbachol stimulation (100 µM)): 5 µM
- IC50 (after Histamin stimulation (100 µM)): 20 µM
- IC50 (after dbcAMP stimulation (0.3 or 1 mM)): 20 µM
SMILES: CCS(=O)(=O)N(C)[C@@H]1c2cc(C#N)ccc2OC(C)(C)[C@H]1O (relative stereo) [293B, trans-6-Cyano-4-(N-ethylsulfonyl-N-methylamino)-3-hydroxy-2,2-dimethyl-chroman]
